Measurements from patent US20060178372A1, “Therapeutic quinoline compounds” (AstraZeneca AB, priority 2001, published 2006).

test system: guinea pigs; assay: learned helplessness test for antidepressant/antianxiety activity; assay type: in vivo; conditions: guinea pig
Excerpt: The utility of the compounds for example to treat depression may be shown via a learned helplessness test in guinea pigs, which is used extensively as correlative to antidepressant activity in humans. The learned helplessness test may be carried out as follows: Seventy male Hartley guinea pigs, each weighing about 350-425 gm are fed ad lib, and are housed under a 12-hour light/dark cycle. The procedure consists of two phases: The induction phase and the avoidance training phase. In the induction phase, subjects are placed into standard shuttle cages (20 L×16 W×21 centimeters H) which are fitted with a grid floor. Electrical stimulation (1.25 mA, 10 sec duration) is delivered to the floor of the cage every 90-sec during 1 hour daily sessions. Subjects have no opportunity to escape or to avoid shocks. Induction is conducted for 2 consecutive days.
In avoidance training, testing is also conducted in the shuttle cages, except that the subjects are not returned to the same chamber in which induction had occurred. Additionally, all cages are fitted with a partition with an arch in the center of the cage, through which animals can pass between the left and right halves of the cage. The procedure employed is a standard shuttle avoidance procedure in which a compound, conditioned stimulus (a 10-sec presentation of a tone and turning on of a lamp on the side of the cage that the guinea pig was occupying) serves to indicate presentation of electrical current to the floor of the cage. Shock is presented for a 5 sec period, 5 sec after initiation of the conditioned stimulus. Entry into the opposite side of the shuttle cage via the arched partition prior to shock onset results in the end of the trial (avoidance response). If shock is delivered, entry into the opposite side of the cage results in termination of the shock and CS (escape). Reversal of learned helplessness in the induction subjects correlates to antidepressant activity of the test compound.
Avoidance training, 45-min in duration, is conducted on 2 consecutive days, beginning 48 hr after the final induction session. Seventy subjects are assigned to 1 of 6 groups of 11-12 animals. The groups are as follows:
1) No induction group. The subjects are placed into the shuttle cages but are not given inescapable shock, the animals are subsequently trained in the avoidance procedure and the vehicle is administered;
2) Induction vehicle control group;
3) Imipramine 17.8 mg/kg;
5) 1 mg/kg compounds; and
Groups 2-6 are given induction and avoidance training sessions. Injections are administered immediately following induction sessions and 1 hour prior to avoidance training sessions. A second injection is administered 7-8 hours following the first injection, for a total of 9 injections administered over 5 days. […]

Row | Compound | activity in the learned helplessness assay
1 | CCC(=O)N1CCN(c2ccc(NC(=O)c3cc(=O)c4cc(OC)cc(N5CCN(C)CC5)c4o3)cc2)CC1 [Example 44, 6-Methoxy-8-(4-methyl-piperazin-1-yl)-4-oxo-4H-chromene-2-carboxylic acid [4-(4-propionyl-piperazin-1-yl)-phenyl]-amide] | demonstrate activity
2 | COc1cc(N2CCN(C)CC2)c2oc(C(=O)Nc3ccc(N4CCOCC4)cc3)cc(=O)c2c1 [Example 31, 6-Methoxy-8-(4-methyl-piperazin-1-yl)-4-oxo-4H-chromene-2-carboxylic acid (4-morpholin-4-yl-phenyl)-amide] | demonstrate activity
3 | CCC(=O)N1CCN(c2ccc(NC(=O)c3cc(=O)c4cc(F)cc(N5CCN(C)CC5)c4o3)cc2)CC1 [Example 72, 6-Fluoro-8-(4-methyl-piperazin-1-yl)-4-oxo-4H-chromene-2-carboxylic acid [4-(4-propionyl-piperazin-1-yl)-phenyl]-amide] | demonstrate activity
4 | CCS(=O)(=O)N1CCN(c2ccc(NC(=O)c3cc(=O)c4cc(F)cc(N5CCN(C)CC5)c4o3)cc2)CC1 [Example 71, 6-Fluoro-8-(4-methyl-piperazin-1-yl)-4-oxo-4H-chromene-2-carboxylic acid [4-(4-ethane sulfonyl-piperazin-1-yl)-phenyl]-amide] | demonstrate activity

test system: not given; assay: not given; conditions: not given

Row | Compound | melting point
5 | CN1CCN(c2cccc3c(=O)cc(C(=O)Nc4ccc(N5CCOCC5)cc4)oc23)CC1 [Example 1, 8-(4-methyl-1-piperazinyl)-N-[4-(4-morpholinyl)phenyl]-4-oxo-4H-chromene-2-carboxamide] | 217 to 218 °C (dec.)
6 | CN1CCN(c2cccc3c(=O)cc(C(=O)Nc4ccc(N5CCOCC5)cc4O)oc23)CC1 [Example 22, 8-(4-Methyl-piperazin-1-yl)-4-oxo-4H-chromene-2-carboxylic acid (2-hydroxy-4-morpholin-4-yl-phenyl)-amide] | 248.4 to 249.6 °C
7 | CN1CCN(c2cccc3c2OC(C(=O)Nc2ccc(N4CCOCC4)cc2)CC3)CC1 (single isomer, unassigned; (+)) [Example 76, (+)-8-(4-Methyl-piperazin-1-yl)-chroman-2-carboxylic acid (4-morpholin-4-yl-phenyl)-amide] | 206 to 207 °C
8 | CCNC(=O)N1CCN(c2ccc(NC(=O)c3cc(=O)c4cc(F)cc(N5CCN(C)CC5)c4o3)cc2)CC1 [Example 81, 4-[4-({1-[6-Fluoro-8-(4-methyl-piperazin-1-yl)-4-oxo-4H-chromen-2-yl]-methanoyl}-amino)-phenyl]-piperazine-1-carboxylic acid ethylamide] | 236 to 238 °C
9 | CN1CCN(c2cccc3c2OC(C(=O)Nc2ccc(N4CCOCC4)cc2)CC3)CC1 (racemic) [Example 75, racemic-8-(4-Methyl-piperazin-1-yl)-chroman-2-carboxylic acid (4-morpholin-4-yl-phenyl)-amide] | 215 to 216 °C
10 | COc1cc(N2CCN(C)CC2)c2oc(C(=O)Nc3ccc(N4CCOCC4)cc3)cc(=O)c2c1 [Example 31, 6-Methoxy-8-(4-methyl-piperazin-1-yl)-4-oxo-4H-chromene-2-carboxylic acid (4-morpholin-4-yl-phenyl)-amide] | 234 to 236 °C
11 | CN1CCN(c2cccc3c2OC(C(=O)Nc2ccc(N4CCOCC4)cc2)CC3=O)CC1 (single isomer, unassigned) [Example 80, 8-(4-Methyl-piperazin-1-yl)-4-oxo-chroman-2-carboxylic acid (4-morpholin-4-yl-phenyl)-amide (slower running isomer)] | 215 °C (dec.)
12 | CCS(=O)(=O)N1CCN(c2ccc(NC(=O)c3cc(=O)c4cc(F)cc(N5CCN(C)CC5)c4o3)cc2)CC1 [Example 71, 6-Fluoro-8-(4-methyl-piperazin-1-yl)-4-oxo-4H-chromene-2-carboxylic acid [4-(4-ethane sulfonyl-piperazin-1-yl)-phenyl]-amide] | 233 to 234 °C
13 | CN1CCN(c2cccc3c(=O)cc(C(=O)N(C)c4ccc(N5CCOCC5)cc4)oc23)CC1 [Example 25, 8-(4-Methylpiperazin-1-yl)-4-oxo-4H-chromene-2-carboxylic acid methyl-(4-morpholin-4-yl-phenyl)amide] | 245 to 246.8 °C

The remaining lines, values ahead:

Row | melting point | Compound
14 | 195 to 197 °C | COc1cc(N2CCN(C)CC2)c2oc(C(=O)Nc3ccc(N4CCN(C(=O)CCO)CC4)cc3)cc(=O)c2c1 [Example 68, 6-Methoxy-8-(4-methyl-piperazin-1-yl)-4-oxo-4H-chromene-2-carboxylic acid {4-[4-(3-hydroxy-propanoyl)-piperazin-1-yl]-phenyl}-amide]
15 | 205.5 to 207 °C | CN1CCN(c2cccc3c2OC(C(=O)Nc2ccc(N4CCOCC4)cc2)CC3)CC1 (single isomer, unassigned; (-)) [Example 77, (−)-8-(4-Methyl-piperazin-1-yl)-chroman-2-carboxylic acid (4-morpholin-4-yl-phenyl)-amide]
16 | 195 to 199 °C | CN1CCN(c2cc(F)cc3c(=O)cc(C(=O)Nc4ccc(N5CCN(C(=O)CCO)CC5)cc4)oc23)CC1 [Example 73, 6-Fluoro-8-(4-methyl-piperazin-1-yl)-4-oxo-4H-chromene-2-carboxylic acid {4-[4-(3-hydroxy-propanoyl)-piperazin-1-yl]-phenyl}-amide]
17 | 158.1 to 158.8 °C | CN1CCN(c2cccc3c(=O)cc(-c4nc5ccc(N6CCOCC6)cc5o4)oc23)CC1 [Example 21, 8-(4-Methyl-piperazin-1-yl)-2-(6-morpholin-4-yl-benzooxazol-2-yl)-chromen-4-one]
18 | 216 °C (dec.) | CN1CCN(c2cccc3c2OC(C(=O)Nc2ccc(N4CCOCC4)cc2)CC3=O)CC1 (single isomer, unassigned) [Example 79, 8-(4-Methyl-piperazin-1-yl)-4-oxo-chroman-2-carboxylic acid (4-morpholin-4-yl-phenyl)-amide (faster running isomer)]
19 | 215 to 216 °C | CN1CCN(c2cccc3c2OC(C(=O)Nc2ccc(N4CCOCC4)cc2)CC3=O)CC1 (racemic) [Example 78, racemic-8-(4-methyl-piperazin-1-yl)-4-oxo-chroman-2-carboxylic acid (4-morpholin-4-yl-phenyl)-amide]
